Values of other authors as cited in US20040076968A1, “Method for detecting pre-disposition to hepatotoxicity” (priority 2000, published 2004).

Target: T1, UGT1A6*2 allelic variant (Homo sapiens, UniProt P19224, R184S/T181A)
T1 sequence (P19224 27-532 T181A/R184S): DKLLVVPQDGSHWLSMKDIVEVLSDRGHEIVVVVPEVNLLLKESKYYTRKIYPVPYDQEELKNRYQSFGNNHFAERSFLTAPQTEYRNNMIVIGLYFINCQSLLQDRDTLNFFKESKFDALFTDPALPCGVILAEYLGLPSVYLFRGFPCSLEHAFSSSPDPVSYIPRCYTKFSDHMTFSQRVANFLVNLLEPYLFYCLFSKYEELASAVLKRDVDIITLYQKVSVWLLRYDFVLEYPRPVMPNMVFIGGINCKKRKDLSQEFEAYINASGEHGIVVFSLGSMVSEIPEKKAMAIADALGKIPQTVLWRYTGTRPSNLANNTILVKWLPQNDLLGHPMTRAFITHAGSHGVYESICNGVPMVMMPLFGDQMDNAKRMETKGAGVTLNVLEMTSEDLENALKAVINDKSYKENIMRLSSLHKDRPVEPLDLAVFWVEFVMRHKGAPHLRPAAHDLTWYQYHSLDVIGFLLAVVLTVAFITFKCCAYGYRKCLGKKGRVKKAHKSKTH
Settings: cited from earlier work; for metabolism compared with wild-type isoenzyme (in words): UGT1A6*2 expressed in COS cells

SMILES	metabolism compared with wild-type isoenzyme (in words)	other results
COc1ccc(O)c(C(C)(C)C)c1 [butylated hydroxy anisole]	–	rate of metabolism relative to the wild-type isoenzyme (pH 6.4): 27-75%
Cc1cc(=O)oc2cc(O)ccc12 [7-hydroxy-4-methylcoumarin]	normal levels	–
N[C@@H](Cc1ccc(O)c(O)c1)C(=O)O [levodopa]	–	activity of UGT1A6 alleles Thr181Ala and Arg184Ser for the substrate: reduced activity
O=c1ccc2ccc(O)cc2o1 [7-hydroxycoumarin]	normal levels	–
Oc1cccc2ccccc12 [1-Naphtol]	normal levels	–
Oc1cccc(I)c1 [3iodophenol]	normal levels	–
